Experimental data taken from PubChem BioAssay (NCI).
Values joined by “and” are separate entries in the source; they are usually repeats but may differ in a detail not shown here. Equal values may be shown once.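 Five compound concentrations were applied to cells in 96-well plates for 48 hours; endpoints were derived by simple linear interpolation of the resulting dose-response curve. Here, GI50 denotes the concentration required for 50% inhibition of growth. TGI: total growth inhibition.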

Key:
Assay in all cases: NCI-60 cell line screen, 48 h
HCC-2998 colon = test system: HCC-2998 colon
UACC-257 melanoma = test system: UACC-257 melanoma
SN12C renal = test system: SN12C renal
SNB-75 CNS = test system: SNB-75 CNS
OVCAR-8 ovarian = test system: OVCAR-8 ovarian
NCI-H460 lung = test system: NCI-H460 lung
OVCAR-5 ovarian = test system: OVCAR-5 ovarian
HOP-62 NSCLC = test system: HOP-62 NSCLC
NCI-H226 lung = test system: NCI-H226 lung
PC-3 prostate = test system: PC-3 prostate

Structure (SMILES)	TGI (HCC-2998 colon) [µM]	GI50 (UACC-257 melanoma) [µM]	TGI (UACC-257 melanoma)	GI50 (SN12C renal) [µM]	TGI (SN12C renal) [µM]	GI50 (SNB-75 CNS) [µM]	TGI (SNB-75 CNS)	GI50 (OVCAR-8 ovarian) [µM]	TGI (OVCAR-8 ovarian) [µM]	GI50 (NCI-H460 lung) [µM]	TGI (NCI-H460 lung) [µM]	GI50 (OVCAR-5 ovarian) [µM]	TGI (OVCAR-5 ovarian) [µM]	GI50 (HOP-62 NSCLC) [µM]	TGI (HOP-62 NSCLC) [µM]	GI50 (NCI-H226 lung) [µM]	TGI (NCI-H226 lung)	GI50 (PC-3 prostate) [µM]	TGI (PC-3 prostate) [µM]	GI50 (HCC-2998 colon) [µM]
c1ccc([P+](CCC[P+](c2ccccc2)(c2ccccc2)c2ccccc2)(c2ccccc2)c2ccccc2)cc1	> 100	2.77	> 100 µM and 41.1 µM	19.6	> 100	4.56	86 µM and 67.6 µM	10.5	> 100	9.03	> 100	34	> 100	18	> 100	32.7	93.8 µM and > 100 µM	3.26	81.1	–
CCOC(CN(C)C(=O)OCC(Cl)(Cl)Cl)OCC	> 100	–	> 100 µM	–	> 100	–	> 100 µM	–	> 100	–	> 100	–	> 100	–	> 100	–	> 100 µM	–	> 100	–
C#CCOc1cccc(Nc2ncnc3c2ncn3C2CCN(C(=O)CCl)C2)c1 (stereo not drawn)	37.3	26.3	79.2 µM	15.4	35.5	34.1	> 100 µM	30.7	> 100	43.2	> 100	16.8	31.6	33.3	> 100	29.5	> 100 µM	22.6	53	18.2
O=C(Nn1c2c(sc1=NC1CC1)C(=O)c1ccccc1C2=O)c1cc2ccc1CCc1ccc(cc1)CC2	6.67	1.69	3.41 µM	1.34	2.61	1.32	6.04 µM	2.62	11.6	3.35	12.2	1.83	3.53	4.28	17.2	1.81	5.83 µM	1.62	10.7	2.34
COc1ccc(Cn2cc3c(c2-c2ccccc2)CCc2cncnc2-3)cc1	25.5	4.03	16.7 µM	5.85	20.9	3.98	13.5 µM	7.76	23.7	3.48	13.1	18.4	37.7	12	31.3	11.5	26.7 µM	8.71	31.1	11.9
COc1cc(/C=N/O)nc(-c2ccccn2)c1	> 100	0.679	9.43 µM	0.434	> 44.7	0.5	–	0.348	22.8	0.304	12.9	0.637	> 100	0.358	> 69.7	0.325	5.93 µM	0.437	> 100	0.341
Clc1ccc2c(NCCN3CCN(c4ccnc(N5CCCC5)n4)CC3)ccnc2c1	4.08	2.29	4.35 µM	4.86	19.1	1.76	7.62 µM	4.39	18.5	3.25	10.1	5.1	21.4	3.34	16.2	21.8	41 µM	5.97	20.8	1.94
Cc1[nH]ccc2cc3nc4ccccc4c3cc12	13.3	3.35	12.8 µM	2.55	12.5	5.52	18.9 µM	1.72	11.7	1.39	3.52	3.35	11.9	2.79	12.8	2.94	12.6 µM	2.46	11.7	2.85
c1cc(-c2cnn3nc(N4CCOCC4)ccc23)nc(NC2CC2)n1	> 25	7.54	> 25 µM	8.83	> 25	5.99	18.6 µM	7.9	> 25	6.61	> 25	6.64	> 22.4	9.27	> 25	5.59	> 25 µM	7.87	> 25	8.64
